Test results taken from patent US9497963B2, “Methods and compositions for control of gypsy moth, Lymantria dispar” (Simon Fraser University, priority 2008, dated 2016).
Read-outs that look alike come from different tables or passages of the source.

Experiments:
Parameters in all cases: species or system Lymantria dispar
[1] = test system: male gypsy moth antenna; test: Coupled gas chromatographic-electroantennographic detection (GC-EAD); settings: EAD peak size and shape (sharp/broad)
From the text: In GC-EAD assays, the analyte is processed by gas chromatography (GC). The column effluent is split, such that molecules of each chromatographic peak arrive simultaneously at the flame ionization detector of the GC and at an anectomized but otherwise intact insect antenna as the biological detector. This procedure detects specific compounds in the analyte that elicit an electrical potential from the antenna.
For GC-EAD recordings, an antenna was carefully dislodged from a male moth's head, and the antennal base placed into the opening of a glass capillary electrode (0.58 mm ID×65 mm length) (A-M Systems, Inc., Carlsborg, Wash., USA) filled with saline solution. The tip of the antenna was removed by spring microscissors (Fine Science Tools Inc., North Vancouver, British Columbia, Canada) and then placed into the opening of the recording electrode mounted on a portable micromanipulator and positioned in front of a constant stream of warm air (Praxair Canada Inc., Mississauga, Ontario, Canada) which delivered the GC column eluent. […] Identical retention times of compounds detected by the flame ionization detector of the GC and by the insect antenna allowed assignment of antennal responses to specific compounds in the eluent.

[2] = test system: response of L. dispar antennae to (+)-disparlure; test: Competitive electroantennogram (EAG) screen, inhibition of response to (+)-disparlure (Example 4); settings: Lymantria dispar, means ± S.E.; for inhibition at 0.001 mg: dose 1 μg on cartridge; for inhibition at 0.01 mg: dose 10 μg on cartridge; for inhibition at 0.1 mg: dose 100 μg on cartridge
Protocol: In this assay, libraries and individual compounds are tested for their ability to inhibit the antennal response to the sex attractant pheromone of the gypsy moth, (7R,8S) 2-methyl-7,8-epoxyoctadecane, also known as (+)-disparlure. The controls consisted of a puff of clean air (negative) or of air passed over a cartridge impregnated with (+)-disparlure (100 ng) (positive). The treatments consisted of 100 ng of (+)-disparlure in combination with a compound or library at 1, 10 or 100 μg, on a cartridge over which the air puff was passed. The small arrows above the trace denote the times where the air was puffed over the antenna.
For some compounds, such as the para Compounds 2c{n}, 2c{n,n} and libraries 3c{n,1-5}, EAG competitive assays were performed to investigate whether the diethers inhibit the response of L. dispar antennae to the main component of the sex attractant pheromone cis-(7R,8S)-epoxy-2-methyloctadecane [(+)-disparlure] (FIG. 4). For EAGs a male moth antenna was mounted and placed in front of a stimulus-delivery glass tubing (160×5 mm ID) with a side orifice (2 mm diam) near (2 cm) the distal opening. The tubing was connected to one port of an apparatus (Stimulus Controller CS-05, Syntech Research and Equipment, NL-1200BM Hilversum, The Netherlands) that generated a constant stream of clean air (300 ml/min). The second port of the apparatus was connected to a Pasteur pipette inserted through the side orifice of the stimulus-delivery tubing. The test stimulus was applied to a disc of Whatman #1 filter paper inside the Pasteur pipette and was discharged through a 0.3-sec pulse of air (600 ml/min) Receptor potentials of the antennae in response to test stimuli were recorded with a Syntech IDAC probe, amplifier and interfaced board, and were analyzed with EAG Syntech Software Version 2.4 (1996) Inhibition (%) was calculated as: % inhibition=(Dd−Ds)/Dd×100 (eq. 1)
Where Dd is the depolarization observed with pure disparlure (corrected for clean air background) and Ds is the depolarization with disparlure+sample. See FIG. 4 for a representative EAG inhibition assay trace.

[3] = test system: male gypsy moth antenna response to pheromone (+)-1; test: EAG short-term (STI) and long-term (LTI) inhibition of pheromone signaling (Example 5); settings: for inhibition at 0.001 mg / inhibition at 0.01 mg / inhibition at 0.1 mg / inhibition at 100 µg, 0.1 mg: Lymantria dispar; for inhibition at 0.001 mg / inhibition at 0.01 mg / inhibition at 0.1 mg / Activity (%): short-term inhibition (STI): negative = enhancement; for inhibition at 0.001 mg / inhibition at 0.01 mg / inhibition at 0.1 mg: read-out: Activity (%): short-term inhibition (STI); for inhibition at 100 µg, 0.1 mg: read-out: Activity (%): long-term inhibition (LTI)
Protocol: The puffs are numbered i-vi and were: i=air, ii=pure pheromone (+)-disparlure, (+)-1, (100 ng), iii-v=disparlure mixed with the test compound, the latter at three different doses, vi=pure (+)-1. Depolarizations from the resting potential are labeled d; hyperpolarizations seen during the recovery phase after a puff are labeled r. Subscripts refer to the puff number. FIG. 5A. Typical trace for compound 3c{2,3}. FIG. 5B. Typical trace for compound 3a{4,4}.
For other compounds, EAG traces were recorded as follows: a fully dislodged antenna from a male gypsy moth was mounted on the end of a reference electrode (a glass capillary with a silver wire, filled with buffered saline: 5 mM NaH2PO4, 10 mM Na2SO4, 4.5 mM KHCO3, 18 mM MgCl2, 4 mM CaCl2, 6 mM KCl, the pH is adjusted to 6.8 using 5 mM Na2HPO4). The tip of the antenna was severed with microscissors and placed in the recording electrode, which was mounted on a micromanipulator. A constant stream of air, that had been purified (charcoal filter), was blown over the antenna at a rate of 300 mL/min. Test samples were delivered through a stimulus delivery tube with a side opening 2 cm from the distal opening. The proximal end of the delivery tube was connected to a controlled stimulus delivery apparatus (Stimulus controller CS-05 Syntech Research and Equipment, NL 1200BM, Hilversum, The Netherlands). The distal end of the delivery tube pointed at the antenna (1 cm from the antenna). The side opening was connected to a cartridge fashioned from a Pasteur pipette which contained a small filter paper (Whatman No. 1) with the stimulus. These pipette cartridges could be prepared a few days in advance and stored at −80° C. wrapped in Al foil and in sealable plastic bags. Sample cartridges were mounted once they had reached room temperature. The stimulus delivery apparatus delivered a second stream of air (a puff) through the Pasteur pipette at a velocity of 600 mL/min, at a specified point in time, for 0.3 s. Receptor potentials of the antennae in response to test stimuli were recorded with a Syntech IDAC probe, amplifier and interfaced board, and were analyzed with EAG Syntech Software Version 2.4 (1996). See FIG. 4 for a representative EAG trace. The EAG traces were evaluated as follows (see FIG. 5).
The net depolarizations, d(net) (in mV), of puffs ii-vi,d(sample), (corrected for the depolarization with clean air, d(air)) d(net)=d(sample)−d(air) (Eq. 1)
The percentage short-term inhibition for each compound (STI(compound)) of puffs iii-v, relative to the first pure pheromone puff (ii) STI(compound)=100×(d(net)(ii)−d(net)(compound))/d(net)(ii) (Eq. 2)
c) the percentage long-term inhibition for each compound (LTI(compound)) of the pure pheromone puff that followed the last mixed puff (vi) relative to the first pure pheromone puff (ii) LTI(compound)=100×(d(net)(ii)−d(net)(vi))/d(net)(ii) (Eq. 3)
The compounds we tested gave weak or no olfactory responses by themselves in electroantennogram (EAG) experiments. The EAG trace reflects the change in the potential across the antenna when an air puff with an odorant is passed over the antenna. To understand the agonistic or antagonistic effect of the compounds on pheromone responses by male moth antennae, four types of EAG experiment were conducted. First, the response of the antenna elicited by a stimulus of pure (+)-1 was compared to the responses elicited by blends of (+)-1 with the test compound (FIG. 5). […] This effect was termed short-term inhibition (STI). […] Second, the time decay and dose responses for LTI activities were studied. Third, the strongest inhibitors were tested for their ability to cause LTI by themselves.
This experiment explored the agonistic or antagonistic activity of the synthetic aromatic compounds (Scheme 1 and eugenol and alkyl eugenols) with the gypsy moth pheromone (+)-1. […]

[4] = test system: L. dispar PBP 1; test: Pheromone-binding protein (PBP) ligand binding assay, PBP1; settings: member tested within library 3c{4, 1-5}
Protocol: A. The protein and ligand are incubated in buffer overnight. B. For half of the incubation mixture, the free ligand (L) is separated from the protein-bound ligand (P.L) by size-exclusion chromatography on P2 Gel (BioRad, exclusion limit 2000 Da). The protein elutes from the small column bed, with its ligand bound (see Examples and […] et al. 2000; Staddon and Everton 1980), while the free ligand is retained on the column ([…] et al. 2000). C. […] The extract from the filtrate (B) contains the protein-bound ligand and the extract from the incubation mixture (A) contains all the ligand (bound and free) present in the aqueous phase. The extracts are analyzed by GC-MS, to obtain values for total ligand in solution (L+P.L) and for protein-bound ligand (P.L). These can then be used to calculate % bound (Table 3). These assays were performed as described in FIG. 3 and as follows: L. dispar PBP 1 or PBP 2 was incubated with the test compound or mini-library. The PBP and the ligand(s) (L) were left to equilibrate (eq 2) overnight. The non-bound ligand was then separated from the protein-bound material (PBP.L) by size-exclusion chromatography. By determining the total ligand in solution at equilibrium (eq. 3) and the protein-bound ligand, it is possible to estimate the percentage of ligand bound to the protein at equilibrium (eq. 4). […] This binding assay has been validated extensively in previous studies ([…] et al. 2000). The components of each mini-library separated cleanly by GC, so it was possible to monitor binding of individual components. PBP+L⇄PBP·L (eq. 2) [L]tot=[L]+[PBP·L] (eq. 3) % bound=100×[PBP·L]/[L]tot (eq. 4) Results: The members of each mini-library separated cleanly by GC, therefore it was possible to monitor binding of individual members to PBP1 or PBP2, the two known PBPs in the gypsy moth, by extraction from the aqueous incubation mixture, followed by GC analysis of the extract (FIG. 3).

[5] = mixed plume (+)-1 100 ng + compound 1 μg, mean ± S.E.
[6] = mixed plume (+)-1 100 ng + compound 10 μg, mean ± S.E.
[7] = mixed plume (+)-1 100 ng + compound 100 μg (puff v), mean ± S.E.
[8] = pure (+)-1 100 ng plume following mixed plume with 100 μg compound, mean ± S.E.

Compound	GC-EAD activity [1]	inhibition at 0.001 mg [2]	inhibition at 0.01 mg [2]	inhibition at 0.1 mg [2]	inhibition at 0.001 mg [3, 5]	inhibition at 0.01 mg [3, 6]	inhibition at 0.1 mg [3, 7]	inhibition at 100 µg, 0.1 mg [3, 8]	short-term effect on antennal pheromone response (in words) [3]	PBP1 (% bound) [4]	Activity (%): short-term inhibition (STI) [3, 5]	Activity (%): short-term inhibition (STI) [3, 6]	Activity (%): short-term inhibition (STI) [3, 7]	Activity (%): long-term inhibition (LTI) [3, 8]	inhibition at 100 µg, 0.1 mg [3]
COc1ccc(O)cc1 [2c{1}, 4-Methoxy phenol]	None	10 ± 5%	55 ± 11%	43 ± 12%	8 ± 12%	21 ± 20%	-16 ± 25%	10 ± 7%							
CCOc1ccc(O)cc1 [2c{2}, 4-Ethoxy phenol]	None	49 ± 10%	64 ± 9%	45 ± 8%	-3 ± 4%	55 ± 5%	47 ± 5%	7 ± 4%							
CCCOc1ccc(O)cc1 [2c{3}, 4-Propoxy phenol]	None	17 ± 14%	43 ± 14%	35 ± 12%	7 ± 31%	29 ± 34%	38 ± 12%	-8 ± 7%							
CC(C)CCOc1ccc(O)cc1 [2c{5}, 4-(3-Methyl-butyloxy) phenol]	None	38 ± 17%	38 ± 27%	19 ± 20%	47 ± 14%	77 ± 7%	49 ± 7%	2 ± 4%	antagonistic						
CCCCOc1ccc(OC)cc1 [3c{1,4}, 1-butoxy-4-methoxy benzene]	None									20 ± 0.4%					
CCCCOc1ccc(OCC)cc1 [3c{2,4}, 1-butoxy-4-ethoxy benzene]	None									10 ± 0.4%					
C=CCOc1ccc(OCCC)cc1 [3c{3,6}, 1-allyloxy-4-propoxybenzene]	+ broad				-57 ± 46%	-114 ± 51%	-168 ± 76%	39 ± 15%							
C=CCOc1ccc(OCC=C)cc1 [3c{6,6}, 1,4-Diallyloxy benzene]	Trace				-6 ± 10%	45 ± 6%	41 ± 8%	4 ± 6%							
C=CCc1ccc(OCCCC)c(OC)c1 [Bu eugenol]	None										39 ± 17 (6) %	−68 ± 29 (6) %	−116 ± 24 (6) %	7 ± 4 (6) %	
C=CCc1ccc(OCC)c(OC)c1 [Et eugenol]	None				3 ± 27%	19 ± 18%	-121 ± 15%	20 ± 3%							
C=CCc1ccc(O)c(OC)c1 [eugenol, 2-methoxy-4-(2-propenyl) phenol, reference compound]	None														14 ± 10%
C=CCc1ccc(OCCC(C)C)c(OC)c1 [iPent eugenol]	None										11 ± 33 (6) %	−98 ± 26 (6) %	−106 ± 24 (6) %	5 ± 8 (6) %	
